Measurements from patent US20240246916A1, “7-NITRO-8-HYDROXYQUINOLINE DERIVATIVES, PREPARATION METHOD THEREFORE AND MEDICAL USE THEREOF” (Jiangsu Yahong Meditech Co., Ltd., priority 2021, published 2024).
Converted amounts (≈) assume the structure as drawn. Like-named read-outs stand apart in the source and are kept apart here.

How the values were obtained:
Assay type in all cases: cell-based
[1] = tested on: Escherichia coli (carbapenem-resistant clinical isolate; ATCC25922); assay: MIC by micro broth dilution (CLSI), Escherichia coli; conditions: Escherichia coli
Excerpt: (§1) The test bacteria were one strain of clinically isolated carbapenem-resistant Escherichia coli, two strains of carbapenem-resistant Acinetobacter baumannii, two strains of methicillin-resistant Staphylococcus aureus, two strains of sensitive Staphylococcus aureus, and 7 strains of Klebsiella pneumoniae. Duplicate strains isolated from the same patient were eliminated. There were also […] quality control strains Escherichia coli ATCC25922, Acinetobacter baumannii ATCC19606, Staphylococcus aureus ATCC29213, Klebsiella pneumoniae ATCC BAA-1705, ATCC 43816, ATCC BAA-2472, ATCC-BAA-1898, ATCC-BAA-1899, NCTC 13440 and ATCC-BAA-2470. There were 24 strains in total.
(§2) According to the recommendations of relevant documents of the American Clinical and Laboratory Standards Institute (CLSI), the micro broth dilution method was used to determine the MIC of the compounds of the present invention against clinically isolated strains. • 3.1 Formulation of antibacterial drug: All the compounds of the present invention were dissolved in DMSO. The drug concentration range was 128 mg/L to 0.06 mg/L. • 3.2 Culture medium: The drug susceptibility test used cation adjusted Mueller-Hinton broth (CAMHB). • 3.3 Amount of inoculum: The test bacteria cultured overnight were adjusted to 0.5 McFarland turbidity by the direct colony suspension method, and diluted 100 folds, the final inoculum amount was 10^5 CFU/mL. • 3.4 Culture conditions: The test bacteria were cultured at 35±2° C. for 20 hours in air.
(§3) The drug susceptibility test results were interpretated by reference to CLSI 2019 M100 29th edition criteria.
(§4) The quality control strains of the drug susceptibility test were Escherichia coli ATCC 25922, Acinetobacter baumannii ATCC 19606, Staphylococcus aureus ATCC 29213, Klebsiella pneumoniae ATCC BAA-1705, ATCC 43816, ATCC BAA-2472, ATCC-BAA-1898, ATCC-BAA-1899, NCTC 13440 and ATCC-BAA-2470.
(§5) The results of drug susceptibility test were statistically analyzed by WHONET software (version 5.6).

[2] = tested on: Staphylococcus aureus (methicillin-resistant and sensitive clinical isolates; ATCC29213); assay: MIC by micro broth dilution (CLSI), Staphylococcus aureus
Excerpt: as §1, §2, §3, §4, §5

[3] = tested on: Acinetobacter baumannii (carbapenem-resistant clinical isolates; ATCC19606); assay: MIC by micro broth dilution (CLSI), Acinetobacter baumannii; conditions: Acinetobacter baumannii; for MIC50 / MIC90: ATCC19606
Excerpt: as §1, §2, §3, §4, §5

[4] = ATCC25922, Clinical strain, read-out: MIC50
[5] = ATCC25922, Clinical strain, read-out: MIC90
[6] = Standard strain ATCC25922, read-out: MIC
[7] = Clinical strain, read-out: MIC50
[8] = Clinical strain, read-out: MIC90
[9] = Standard strain ATCC29213, read-out: MIC
[10] = Standard strain ATCC19606, read-out: MIC

SMILES	MIC50 [1, 4] [µg/mL]	MIC90 [1, 5] [µg/mL]	MIC [1, 6] [µg/mL]	MIC50 [2, 7] [µg/mL]	MIC90 [2, 8] [µg/mL]	MIC [2, 9] [µg/mL]	MIC50 [3, 7] [µg/mL]	MIC90 [3, 8] [µg/mL]	MIC [3, 10] [µg/mL]	MIC50 ([1]; clinical strains, micro broth dilution, CAMHB, 35±2° C., 20 hours, read-out: MIC50 Escherichia coli Clinical strain) [µg/mL]	MIC90 ([1]; clinical strains, micro broth dilution, CAMHB, 35±2° C., 20 hours, read-out: MIC90 Escherichia coli Clinical strain) [µg/mL]	MIC ([1]; standard strain ATCC25922, micro broth dilution, CAMHB, 35±2° C., 20 hours, read-out: MIC Escherichia coli Standard strain ATCC25922) [µg/mL]	MIC50 ([2]; clinical strains, micro broth dilution, CAMHB, 35±2° C., 20 hours, read-out: MIC50 Staphylococcus aureus Clinical strain) [µg/mL]	MIC90 ([2]; clinical strains, micro broth dilution, CAMHB, 35±2° C., 20 hours, read-out: MIC90 Staphylococcus aureus Clinical strain) [µg/mL]	MIC ([2]; standard strain ATCC29213, micro broth dilution, CAMHB, 35±2° C., 20 hours, read-out: MIC Staphylococcus aureus Standard strain ATCC29213) [µg/mL]	MIC50 ([3]; clinical strains, micro broth dilution, CAMHB, 35±2° C., 20 hours, read-out: MIC50 Acinetobacter baumannii Clinical strain) [µg/mL]	MIC90 ([3]; clinical strains, micro broth dilution, CAMHB, 35±2° C., 20 hours, read-out: MIC90 Acinetobacter baumannii Clinical strain) [µg/mL]	MIC ([3]; standard strain ATCC19606, micro broth dilution, CAMHB, 35±2° C., 20 hours, read-out: MIC Acinetobacter baumannii Standard strain ATCC19606) [µg/mL]
[2H]c1ccc2ccc([N+](=O)[O-])c(O)c2n1 [Example 116, 7-nitroquinolin-2-d-8-ol]	16 (≈ 83.7 µM)	16 (≈ 83.7 µM)	8 (≈ 41.8 µM)	4 (≈ 20.9 µM)	8 (≈ 41.8 µM)	4 (≈ 20.9 µM)	4 (≈ 20.9 µM)	4 (≈ 20.9 µM)	4 (≈ 20.9 µM)									
O=[N+]([O-])c1c(F)c(Cl)c2cccnc2c1O [Example 110, 5-chloro-6-fluoro-7-nitroquinolin-8-ol]	16 (≈ 66 µM)	64 (≈ 264 µM)	8 (≈ 33 µM)	2 (≈ 8.24 µM)	2 (≈ 8.24 µM)	4 (≈ 16.5 µM)	8 (≈ 33 µM)	8 (≈ 33 µM)	8 (≈ 33 µM)									
O=[N+]([O-])c1cc(Cl)c2cc(CN3CCOCC3)cnc2c1O [Example 96, 5-chloro-3-(morpholinomethyl)-7-nitroquinolin-8-ol]	> 128	> 128	> 128	32 (≈ 98.8 µM)	64 (≈ 198 µM)	32 (≈ 98.8 µM)	> 128	> 128	> 128									
O=[N+]([O-])c1cc(Cl)c2c(N3CCCC(F)C3)ccnc2c1O (stereo not drawn) [Example 119, 5-chloro-4-(3-fluoropiperidin-1-yl)-7-nitroquinolin-8-ol]	> 128	> 128	> 128	16 (≈ 49.1 µM)	128 (≈ 393 µM)	128 (≈ 393 µM)	128 (≈ 393 µM)	> 128	> 128									
O=[N+]([O-])c1cc(CN2CCCC2)c2cccnc2c1O [Example 93, 7-nitro-5-(pyrrolidin-1-ylmethyl)quinolin-8-ol acetate]	> 128	> 128	> 128	> 128	> 128	> 128	> 128	> 128	> 128									
Cc1cnc2c(O)c([N+](=O)[O-])cc(F)c2c1 [Example 86, 5-fluoro-3-methyl-7-nitroquinolin-8-ol]	32 (≈ 144 µM)	32 (≈ 144 µM)	16 (≈ 72 µM)	8 (≈ 36 µM)	> 128	8 (≈ 36 µM)	16 (≈ 72 µM)	32 (≈ 144 µM)	16 (≈ 72 µM)									
O=[N+]([O-])c1cc(Cl)c2c(N3CCCC(c4ccccc4)C3)ccnc2c1O (stereo not drawn) [Example 111, 5-chloro-7-nitro-4-(3-phenylpiperidin-1-yl)quinolin-8-ol]	> 128	> 128	> 128	> 128	> 128	> 128	> 128	> 128	> 128									
O=[N+]([O-])c1ccc2cc(C3CC3)cnc2c1O [Example 112, 3-cyclopropyl-7-nitroquinolin-8-ol]	64 (≈ 278 µM)	128 (≈ 556 µM)	32 (≈ 139 µM)	2 (≈ 8.69 µM)	4 (≈ 17.4 µM)	4 (≈ 17.4 µM)	8 (≈ 34.7 µM)	32 (≈ 139 µM)	32 (≈ 139 µM)									
O=[N+]([O-])c1cc(CN2CCOCC2)c2cccnc2c1O [Example 87, 5-(morpholinomethyl)-7-nitroquinolin-8-ol acetate]	> 128	> 128	128	128	> 128	128	> 128	> 128	128									
O=[N+]([O-])c1cc(Cl)c2c(N3CCCC(F)(F)C3)ccnc2c1O [Example 118, 5-chloro-4-(3,3-difluoropiperidin-1-yl)-7-nitroquinolin-8-ol]	> 128	> 128	> 128	8 (≈ 23.3 µM)	128 (≈ 372 µM)	128 (≈ 372 µM)	128 (≈ 372 µM)	> 128	> 128									
CN(C)Cc1cc([N+](=O)[O-])c(O)c2nccc(C(F)(F)F)c12 [Example 104, 5-((dimethylamino)methyl)-7-nitro-4-(trifluoromethyl)quinolin-8-ol]	> 128	> 128	128 (≈ 406 µM)	> 128	> 128	> 128	> 128	> 128	> 128									
O=[N+]([O-])c1c(F)c(F)c2cccnc2c1O [Example 125, 5,6-difluoro-7-nitroquinolin-8-ol]										16 (≈ 70.8 µM)	16 (≈ 70.8 µM)	8 (≈ 35.4 µM)	8 (≈ 35.4 µM)	8 (≈ 35.4 µM)	8 (≈ 35.4 µM)	8 (≈ 35.4 µM)	16 (≈ 70.8 µM)	8 (≈ 35.4 µM)
Cc1cnc2c(O)c([N+](=O)[O-])cc(C3CC3)c2c1 [Example 84, 5-cyclopropyl-3-methyl-7-nitroquinolin-8-ol]	> 128	> 128	64 (≈ 262 µM)	4 (≈ 16.4 µM)	64 (≈ 262 µM)	4 (≈ 16.4 µM)	64 (≈ 262 µM)	128 (≈ 524 µM)	64 (≈ 262 µM)									
[2H]c1ccc2c(Cl)cc([N+](=O)[O-])c(O)c2n1 [Example 113, 5-chloro-7-nitroquinolin-2-d-8-ol]	16 (≈ 70.9 µM)	16 (≈ 70.9 µM)	8 (≈ 35.5 µM)	4 (≈ 17.7 µM)	4 (≈ 17.7 µM)	4 (≈ 17.7 µM)	8 (≈ 35.5 µM)	16 (≈ 70.9 µM)	8 (≈ 35.5 µM)									
